Measurements taken from US20150216182A1, “COMPOSITIONS AND METHODS OF THE ATTRACTION AND REPULSION OF INSECTS” (Olfactor Laboratories, Inc., priority 2012, published 2015).

Columns and labels:
cpA neurons [1] = assay: extracellular single-sensillum electrophysiology: inhibition of CO2-responsive (cpA) neuronal activity; settings: for Class: Table 10, single compounds, percent reduction in cpA activity compared to baseline; for Class (inhibitor class of the individual component): Inh = inhibitor
cpA neurons [2] = assay: extracellular single-sensillum electrophysiology: activation of cpA neuronal activity; settings: for Class: Table 6, single compounds, increase over baseline cpA neuronal activity
larvae = assay: larvicidal activity assay; assay type: in vivo; settings: 24 hour exposure, dead larvae / total larvae; for pest or weed control at 0.25 %: read-out: % Lethality with 0.25% compound conc.; for pest or weed control at 100 ppm: read-out: % Lethality at 100 ppm
Procedure: A 6-well plate (Corning Life Sciences, Tewksbury, Mass.) is used to test a compound's larvicidal activity. […] After a 24 hour exposure, the number of dead larvae are counted and recorded.
The results are presented in Table 17 as % lethality (the number of dead larvae divided by the total number of larvae).

female mosquitoes = assay: whole plant or invertebrate; settings: 2 h; for mortality at 200 µg/mL: read-out: % mortality with 0.2 mg/ml; for mortality at 2000 µg/mL: read-out: % mortality with 2 mg/ml
[3] = Table 13, single component alone

| Compound | Class (cpA neurons [2]) | other results |
| --- | --- | --- |
| CCCCCCC(=O)OCC [OLI0086, Ethylheptanoate] |  | Class (cpA neurons [1]): Mild Inhibitor (mild inhibitors (reducing activity by 20-40%)) |
| dipropylenglykol-monomethyl ether [OLI0041] | Mild Activator (mild activators yield an increase in neuronal activity that is between 20 and 40 spk/sec over baseline neuronal activity) |  |
| CCOC(=O)C(C)C [OLI0045, ethylisobutyrate] | Mild Activator (mild activators yield an increase in neuronal activity that is between 20 and 40 spk/sec over baseline neuronal activity) |  |
| CCCCC1OC(=O)CC1C (centres unmarked) [OLI0094, whiskey lactone] |  | Class (cpA neurons [1]): Mild Inhibitor (mild inhibitors (reducing activity by 20-40%)) |
| CCOC(=O)CC(C)O (centres unmarked) [OLI0042, ethyl 3-hydroxybutyrate] | Mild Activator (mild activators yield an increase in neuronal activity that is between 20 and 40 spk/sec over baseline neuronal activity) | pest or weed control at 0.25 % (larvae; 0.25% compound): 0%; pest or weed control at 100 ppm (larvae; 100 ppm compound): 0%; mortality at 200 µg/mL (female mosquitoes): 0%; mortality at 2000 µg/mL (female mosquitoes): 0% |
| Cc1cccc(C=O)c1 [OLI0060, m-tolualdehyde] | Mild Activator (mild activators yield an increase in neuronal activity that is between 20 and 40 spk/sec over baseline neuronal activity) |  |
| COc1cc(C)ccc1O [OLI0033, 2-methoxy-4-methylphenol] | Mild Activator (mild activators yield an increase in neuronal activity that is between 20 and 40 spk/sec over baseline neuronal activity) |  |
| CCCC(=O)OC/C=C(\C)CCC=C(C)C [OLI0090, Geranylbutyrate] |  | Class (cpA neurons [1]): Mild Inhibitor (mild inhibitors (reducing activity by 20-40%)) |
| CCCC(=O)OC(C)C(C)=O (centres unmarked) [OLI0039, butan-3-one-2yl butanoate] | Mild Activator (mild activators yield an increase in neuronal activity that is between 20 and 40 spk/sec over baseline neuronal activity) |  |
| COC(=O)CC(C)C [OLI0058, methyl isovalerate] | Mild Activator (mild activators yield an increase in neuronal activity that is between 20 and 40 spk/sec over baseline neuronal activity) |  |
| CC(C)C(=O)OCC=Cc1ccccc1 [OLI0108, cinnamyl isobutyrate] |  | mortality at 200 µg/mL (female mosquitoes): 10%; mortality at 2000 µg/mL (female mosquitoes): 100% |
| CC(=O)c1cnccn1 [OLI0038, acetyl-2-pyrazine] | Mild Activator (mild activators yield an increase in neuronal activity that is between 20 and 40 spk/sec over baseline neuronal activity) |  |
| O=C(C=Cc1ccccc1)OCCc1ccccc1 [OLI0103, phenethyl cinnamate] |  | pest or weed control at 0.25 % (larvae; 0.25% compound): 0%; pest or weed control at 100 ppm (larvae; 100 ppm compound): 0%; mortality at 200 µg/mL (female mosquitoes): 5%; mortality at 2000 µg/mL (female mosquitoes): 25% |
| CCC/C=C\CCOC(C)=O [OLI0078, (Z)-hept-3-enylacetate] |  | Class (cpA neurons [1]): Mild Inhibitor (mild inhibitors (reducing activity by 20-40%)); Class (inhibitor class of the individual component) (cpA neurons [1]; [3]): Mild; Class (inhibitor class of the individual component) (cpA neurons [1]; Table 16, single component alone): Mild |
| CC12CCC(CC1)C(C)(C)O2 [OLI0087, Eucalyptol] |  | Class (cpA neurons [1]): Mild Inhibitor (mild inhibitors (reducing activity by 20-40%)) |
| CCCCCC=O [OLI0051, hexanal] | Mild Activator (mild activators yield an increase in neuronal activity that is between 20 and 40 spk/sec over baseline neuronal activity) |  |
| CCCC(=O)CCC [OLI0050, heptanone-4] | Mild Activator (mild activators yield an increase in neuronal activity that is between 20 and 40 spk/sec over baseline neuronal activity) |  |
| CC1=CC(C)C(C=O)CC1 (centres unmarked) [OLI0031, 2,4-dimethyl-3-cyclohexene-carboxaldehyde] | Mild Activator (mild activators yield an increase in neuronal activity that is between 20 and 40 spk/sec over baseline neuronal activity) |  |
| ethyl-2,3,5(6)-dimethyl pyrazine [OLI0043] | Mild Activator (mild activators yield an increase in neuronal activity that is between 20 and 40 spk/sec over baseline neuronal activity) |  |
| Ultrazur [OLI0118] |  | % Lethality with 0.25% compound conc. (larvae; 0.25% compound): 100% lethal; % Lethality at 100 ppm (larvae; 100 ppm compound): 0% lethal |
| CC(C)C(=O)OCC=Cc1ccccc1 [OLI0117, cinnamyl isobutyrate] |  | pest or weed control at 0.25 % (larvae; 0.25% compound): 100%; pest or weed control at 100 ppm (larvae; 100 ppm compound): 0% |
| CCCC(=O)OC(C)(C)Cc1ccccc1 [OLI0082, alpha,alpha-dimethyl phenethyl butyrate] |  | Class (cpA neurons [1]): Mild Inhibitor (mild inhibitors (reducing activity by 20-40%)); Class (inhibitor class of the individual component) (cpA neurons [1]; [3]): Mild |
| COC1=C(C)OC(C)C1=O (centres unmarked) [OLI0081, 2,5-dimethyl-4-methoxy-3(2H) furanone] |  | Class (cpA neurons [1]): Mild Inhibitor (mild inhibitors (reducing activity by 20-40%)) |

| Compound | Class (cpA neurons [2]) | other results |
| --- | --- | --- |
| CCOC(=O)CC(C)=O [OLI0022, ethylacetoacetate] | Moderate Activator (Moderate activators yield an increase in neuronal activity that is between 40 and 60 spk/sec over baseline neuronal activity) | Comp A Class (cpA neurons [2]; Table 9, component A tested individually): Mod; Comp B Class (cpA neurons [2]; Table 9, component B tested individually): Mod; Class B (activator class of the individual component) (cpA neurons [2]; Table 15, single component alone, Mod Actv): Mod; mortality at 200 µg/mL (female mosquitoes): 0%; mortality at 2000 µg/mL (female mosquitoes): 0% |
| CCCC(=O)CC [OLI0035, 3-hexanone] | Mild Activator (mild activators yield an increase in neuronal activity that is between 20 and 40 spk/sec over baseline neuronal activity) |  |
| CCOC(=O)c1cccnc1 [OLI0085, ethyl nicotinate] |  | Class (cpA neurons [1]): Mild Inhibitor (mild inhibitors (reducing activity by 20-40%)) |
| CCCC(=O)OC(C)C [OLI0056, isopropyl butyrate] | Mild Activator (mild activators yield an increase in neuronal activity that is between 20 and 40 spk/sec over baseline neuronal activity) |  |
| CCC(=O)OCC(C)C [OLI0054, isobutyl propionate] | Mild Activator (mild activators yield an increase in neuronal activity that is between 20 and 40 spk/sec over baseline neuronal activity) |  |
| C=CC(=O)CC [OLI0023, ethylvinylketone] | Moderate Activator (Moderate activators yield an increase in neuronal activity that is between 40 and 60 spk/sec over baseline neuronal activity) |  |
| CCc1ccc(C=O)cc1 [OLI0036, 4-ethylbenzaldehyde] | Mild Activator (mild activators yield an increase in neuronal activity that is between 20 and 40 spk/sec over baseline neuronal activity) |  |
| CC(=O)OCC=C(C)C [OLI0062, prenylacetate] | Mild Activator (mild activators yield an increase in neuronal activity that is between 20 and 40 spk/sec over baseline neuronal activity) |  |
| CC(C=O)c1ccccc1 (centres unmarked) [OLI0034, 2-phenylpropionaldehyde] | Mild Activator (mild activators yield an increase in neuronal activity that is between 20 and 40 spk/sec over baseline neuronal activity) |  |
| C/C=C/C(=O)OCC(C)C [OLI0055, isobutyl trans-2-butenoate] | Mild Activator (mild activators yield an increase in neuronal activity that is between 20 and 40 spk/sec over baseline neuronal activity) |  |
| CC(=O)OCC(C)C [OLI0053, isobutyl acetate] | Mild Activator (mild activators yield an increase in neuronal activity that is between 20 and 40 spk/sec over baseline neuronal activity) |  |
| CC(C)=C1CC[C@@H](C)CC1=O [OLI0064, R-+ pulegone] | Mild Activator (mild activators yield an increase in neuronal activity that is between 20 and 40 spk/sec over baseline neuronal activity) |  |
| O=Cc1ccccc1O [OLI0116, Salicylaldehyde] |  | mortality at 200 µg/mL (female mosquitoes): 0%; mortality at 2000 µg/mL (female mosquitoes): 0% |
| COC(=O)CCC(=O)OC [OLI0040, dimethyl succinate] | Mild Activator (mild activators yield an increase in neuronal activity that is between 20 and 40 spk/sec over baseline neuronal activity) |  |
| CCOC(=O)CCC(C)=O [OLI0047, ethyllevulinate] | Mild Activator (mild activators yield an increase in neuronal activity that is between 20 and 40 spk/sec over baseline neuronal activity) |  |
| COc1ccccc1C=O [OLI0061, o-anisaldehyde] | Mild Activator (mild activators yield an increase in neuronal activity that is between 20 and 40 spk/sec over baseline neuronal activity) |  |
| C/C=C(\C)C(=O)OC(C)C [OLI0057, isopropyl tiglate] | Mild Activator (mild activators yield an increase in neuronal activity that is between 20 and 40 spk/sec over baseline neuronal activity) |  |
| Cc1ccc(C=O)c(C)c1 [OLI0030, 2,4-dimethyl benzaldehyde] | Mild Activator (mild activators yield an increase in neuronal activity that is between 20 and 40 spk/sec over baseline neuronal activity) |  |
| CC1=CC(=O)CC(C)(C)C1=O [OLI0037, 4-oxoisophorone] | Mild Activator (mild activators yield an increase in neuronal activity that is between 20 and 40 spk/sec over baseline neuronal activity) |  |
| CCOC(=O)CC(C)C [OLI0046, ethylisovalerate] | Mild Activator (mild activators yield an increase in neuronal activity that is between 20 and 40 spk/sec over baseline neuronal activity) |  |
| CCCCCCC=O [OLI0049, heptaldehyde] | Mild Activator (mild activators yield an increase in neuronal activity that is between 20 and 40 spk/sec over baseline neuronal activity) |  |
| CCOC=O [OLI0044, ethylformate] | Mild Activator (mild activators yield an increase in neuronal activity that is between 20 and 40 spk/sec over baseline neuronal activity) |  |
| CCOCc1ccco1 [OLI0048, furfurylethylether] | Mild Activator (mild activators yield an increase in neuronal activity that is between 20 and 40 spk/sec over baseline neuronal activity) |  |
